Entries after “also recorded” stand apart in the source; their conditions may differ.
Test system: Escherichia coli (ATCC strain #25404)
Test: High-throughput 96-well liquid outgrowth system for the measurement of bacterial cell killing
Assay type: cell-based
Settings: for log kill / antimicrobial effect of the stress inducer after iron pre-incubation: 10 min 1 mM FeCl2 in iso-osmotic saline (130 mM NaCl, pH 5.0), then 10 min a range of concentrations of the stress inducer; for kill by the stress inducer alone: no FeCl2 pre-treatment, 10 min a range of concentrations of the stress inducer, iso-osmotic saline; for antimicrobial effectiveness: 1 mM FeCl2 10 min
Excerpt: Classical methods for determining antimicrobial effects involve exposure of cells to disinfectant or antiseptic agents contained in tubes or vials, removal of the agents by centrifugation, washing of the cells to remove disinfectant residues, plating of the cells at a number of dilutions onto culture plates, and enumeration of the resulting colonies. Such methods are inadequate for the purposes of the present invention for two principle reasons, namely, treatment of cells in tubes is too lengthy for the determination of rapid effects (e.g., on the order of 1-5 minutes), and treatment and plating are too laborious for the accurate determination of many different interactions in parallel. […] In these experiments, the assays were prepared as follows, and quadruplicate wells were treated in parallel. A high-throughput 96-well liquid outgrowth system was devised for the measurement of bacterial cell killing. Known numbers of living cells were treated, and unknown numbers of surviving cells were quantified by measuring the rate of liquid outgrowth of the culture relative to a standard curve, as determined by optical density. Cells of Escherichia coli (ATCC strain #25404) were grown to mid-log cell density (absorbance of about 0.1 at 600 nm) in 100 mL of Luria Broth (LB) at 37° C. in Erlenmeyer flasks, and then chilled at 0° C. on ice prior to use. “Treatment” plates were prepared as follows. Chilled cells were aliquoted (approximately 50 μL) into wells of a 96-well filtration plate (Multiscreen® (Millipore Corporation, Bedford, Mass.), having a 0.22 μm hydrophilic Durapore® membrane at the bottom of the wells). The LB medium was removed by vacuum filtration, and the remaining cells were washed with 150 μL of an iso-osmotic solution, either sterile saline solution (SSS, 130 mM NaCl, pH 5.0) or sterile HEPES-buffered saline (HBS, 0.595% HEPES, 0.82% NaCl, pH 7.05). The cells on the treatment plate were then exposed to various free iron (for example, FeCl2) and optional stress inducer treatments as described in the examples delineated below. The FeCl2 solutions were always prepared fresh on the day of use from the anhydrous salt. The cells in a set number of wells were not treated; these untreated cells were serially diluted and used to construct a standard curve. “Reading” plates were made from the treatment plate by adding approximately 130 μL of sterile LB medium to each well of three sterile polycarbonate microtiter plates (Corning). […] of the resuspended cells from all wells of the treatment plate were then transferred to a corresponding well on the reading plates, which were then sealed (for example, using polypropylene sealing mats) and incubated at 37° C. with vigorous shaking. Absorbance readings of turbidity (measured at λ=600 nm) were recorded at approximately 45minute intervals over a time course ranging from about two to about seven hours. Cell densities of the wells containing the treated cells were calculated by comparison to the standard curve. Absorbance readings were performed at 600 nm using a standard microtiter plate absorbance reader (Multiskan® microplate reader by Labsystems, Helsinki, FI). The measurements collected for the treated cells were disregarded unless they fell within a region of linear growth in liquid culture, which was individually determined for each time point reading. Generally, acceptable measurements ranged from about 0.020 to about 0.200 OD units. […] Techniques for calculating slopes and determining concentrations from standard curves are known to one skilled in the art, FeCl2 solutions were prepared from the anhydrous salt, and peroxide (H2O2) dilutions are prepared fresh from a 30% w/w stock solution. Cells were plated as described above, then treated with FeCl2 at concentrations ranging from about 1 μM to about 1.024 mM (in HBS). Cells were exposed to the FeCl2 solution for approximately 10 minutes at room temperature (i.e., iron “pre-treatment”).

Compound | log kill / antimicrobial effect of the stress inducer after iron pre-incubation | kill by the stress inducer alone | also measured
O=C(O)CC(O)(CC(=O)O)C(=O)O [citric acid] | potentiated by pre-incubation with iron |  | 
O=P([O-])([O-])[O-].[Na+].[Na+].[Na+] [TSP, trisodium phosphate] | enhanced by pre-incubation of the cells with free iron |  | 
OCl [hypochlorite] | highly effective | none of the concentrations of bleach used resulted in any kill alone | 
[Cl][Fe][Cl] [FeCl2] |  |  | antimicrobial effectiveness (then NaCl near the iso-osmotic point (130 mM) (FIG. 4)): minimally effective; antimicrobial effectiveness (then hypo-osmotic (0 mM NaCl) or hyper-osmotic (600 mM) conditions (FIG. 4)): maximally effective; cell killing (10 min 1 mM FeCl2 in iso-osmotic saline, then 10 min in a range of osmolarities of sodium chloride (FIG. 4)): resulted in killing at all osmolarities; FeCl2 pre-treatment concentration that increases the sensitivity of cells to subsequent H2O2 (10 min FeCl2 in HBS, then 10 min H2O2 about 73 μM to about 1 mM (FIG. 2B)): ≥ 16 µM; cell killing (decrease in cell viability) (FeCl2 alone, about 1 μM to about 1.024 mM in iso-osmotic HBS, 10 min room temperature, no hydrogen peroxide (FIG. 2A)): did not result in appreciable cell killing at any concentration; also recorded: relatively small antimicrobial effect; reduction of microbial population (FeCl2 pre-treatment 10 min in HBS, then H2O2 10 min at concentrations as low as 73 μM (FIG. 2A)): reduced the microbial populations significantly
lysozyme | highly effective | none of the concentrations of lysozyme used resulted in any kill alone | 
